{"source": "patent US6806257B1", "about": "“Flavones as inducible nitric oxide synthase inhibitors, cyclooxygenase-2 inhibitors and potassium channel activators” (priority 1999, dated 2004)", "key": {"nNOS": {"tested_on": "nNOS", "assay": "nNOS expression in cultured primary smooth muscle cells from porcine cerebral arteries", "assay_type": "cell-based", "conditions": "30 μM and 60 μM"}, "iNOS [1]": {"tested_on": "iNOS", "assay": "LPS-induced iNOS expression in RAW264.7 macrophages (western/northern blot)", "assay_type": "cell-based, mouse", "protocol": "(§1) Cells. RAW264.7, a mouse macrophage cell line, was obtained from American Type Culture Collection. Cells were cultured in RPMI-1640 medium (available from Gibco Life Technology, in Gaithersburg, Md.) supplemented with 2 mM L-glutamine, antibiotics (100 units/ml penicillin-A and 100 units/ml streptomycin) and 10% heat-inactivated fetal bovine serum (Gibco/BRL) and maintained at 37° C in a humidified incubator containing 5% CO2.\nWestern blots. Total cellular extract, cytosolic fractions (for IkB) and nuclear fraction (for p65 antibody) were prepared according to Muller et al., Immunobiology, 187, 233-256, 1993 and separated on sodium dodecyl sulfatepolyacrylamide minigels (8% for iNOS or COX-2, and 10% for IkB or p65) and transferred to immobilon polyvinylidene difluoride membranes (Millipore, Bedford, Mass.). The membrane was incubated overnight at 4° C. with 1% bovine serum albumin and then incubated with anti-iNos, COX-2, α-Tubulin monoclonal antibodies (Transduction Laboratories, Lexington, Ky.), anti-IkB or anti-p65 polyclonal antibodies (Santa Cruz Biochemicals, Santa Cruz, Calif.). iNOS, IkB, p65, Cox-2, α-Tubulin were detected by NBT and BCIP staining (Sigma Chemical Co., St. Louis, Mo.).\nNorthern blot analysis. Total RNA (20 μg/lane) were separated by electrophoresis on 1.2% agarose gel containing 6.7% formaldehyde and transformed to a Hybond-N nylon membrane (American Life Science) in 20×standard saline citrate (3 M sodium chloride and 0.3 M sodium citrate, pH 7.0). After heating at 80° C. for 2 hours and prehybridization for 4 hours, the filters were hybridized with ^32P-labeled murine iNOS cDNA probes at a concentration of 3×10^6 cpm/ml for 16-18 hours at 42° C. The probe was labeled with [α-32P] dCTP by using Random Primer labeling kit (Stratagene, La Jolla, Calif.). Then, the filters were washed, dried and autoradiographed with Kodak-X-Omat XAR-film using intensifying screens at −80° C."}, "[2]": {"tested_on": "LPS-induced NO production in RAW264.7 macrophages", "assay": "LPS-induced nitrite (NO) production in RAW264.7 macrophages, Griess reaction", "assay_type": "cell-based, mouse", "conditions": "5, 10 or 20 μg/ml together with 100 ng/ml LPS for 24 hours", "protocol": "as §1\nNitrite assay. The nitrite concentration in the medium was measured as an indicator of NO production according to the Griess reaction (Kim et al., J. Immunol. 153: 4741-4748). One hundred microliters of each supernatant was. mixed with the same volume of Griess reagent (1% sulfanilamide in 5% phosphoric acid and 0. 1% naphthylethylenediamine dihydrochloride in water); absorbency of the mixture at 550 nm was determined with an enzyme-linked immunosorbent assay plate reader (Dynatech MR-7000; Dynatech Labs, Chantilly, Va.).\nThe effects of flavonoids, ellagitannins, anthraquinones on LPS-induced NO production in macrophages were studied as follows. The chemical structures of two flavonoids (myricitrin, N1; oroxylin A, N2) four ellagitannins (penta-O-galloyl-β-glucopyranose, N3; woodfordin C, N4; onothein B, N5; cuphiin, N6), and two anthraquinones (emodin, N7; physcion, N8) that were used in the present study were shown in FIG. 1. The effects of these eight compounds on NO production in RAW264.7 macrophages were investigated. The accumulated nitrite in the culture medium was used as an index for NO synthesis from these cells. […]"}, "COX-2": {"tested_on": "COX-2", "assay": "LPS-induced COX-2 mRNA in Bcl-2-overexpressed RAW264.7 cells", "assay_type": "cell-based, mouse", "conditions": "20 μg/ml, LPS 100 ng/ml"}, "iNOS [3]": {"tested_on": "iNOS", "assay": "iNOS expression in cultured primary smooth muscle cells from porcine cerebral arteries (immunostaining, Western blot)", "assay_type": "cell-based", "protocol": "Culture of smooth muscle cells. The entire brain with dura attached was removed and placed in ice-cold sterile phosphate-buffered saline (PBS) (140 mM NaCl, 4 mM KCl, 1 mM KH2PO4, pH 7.4) containing antibiotics (100 U/ml penicillin G potassium, 100 μg/ml streptomycin sulfate, and 0.25 μg/ml fungizone) (Fisher Scientific, Springfield, N.J.). The arteries of the circle of Willis were removed and cleaned of surrounding tissue under a dissecting microscope. The arteries were then placed on a sterile petri dish and sliced longitudinally. The luminal surface was rubbed with a sterile cotton swab to remove endothelial cells. The vessels were placed in DMEM (Dulbecco's Modified Eagle Medium, Life Technologies, Grand Island, N.Y.) containing antibiotics and stored overnight at 4° C. The vessels were cut into approximately 2×2-mm explants, placed in a 10 cm petri dish, covered with DMEM containing antibiotics plus 20% FBS (fetal bovine serum, Sigma Chemical Co., St Louis, Mo.), and placed in an incubator in an atmosphere of 5% CO2 in air at 37° C. […]\nWestern blots. […] Expression of iNOS was detected by NBT and BCIP staining (Sigma Chemical Co., St. Louis, Mo.).\nPhotomicrographs of immunofluorescence at 20× were immediately taken with an Olympus fluorescence microscope fitted with an FITC filter. […]"}}, "note": "Entries after “also recorded” stand apart in the source; their conditions may differ.", "data": [{"compound": "COc1c(O)cc2oc(-c3ccccc3)cc(=O)c2c1O", "note": "[oroxylin A, 5,7-dihydroxy-6-methoxy flavone]", "values": [{"measurement": "expression of nNOS", "setting": "nNOS", "value": "did not affect"}, {"measurement": "blocking LPS-induced iNOS gene expression, comparison among compounds tested", "setting": "iNOS [1]", "value": "most potent among the compounds tested"}, {"measurement": "LPS-induced iNOS protein", "setting": "iNOS [1]; 100 ng/ml LPS, western blot", "value": "inhibited LPS-induced iNOS protein in a concentration-dependent manner"}, {"measurement": "LPS-induced nitrite production", "setting": "[2]", "value": "significant inhibition"}, {"measurement": "LPS-induced COX-2 mRNA", "setting": "COX-2", "value": "inhibited"}, {"measurement": "LPS-induced iNOS-immunoreactive cultured smooth muscle cells", "setting": "iNOS [3]; LPS 10 μg/ml 20 hours, concomitant 60 μM", "value": "drastically decreased; also recorded: inhibition"}, {"measurement": "LPS-induced iNOS proteins, Western blot", "setting": "iNOS [3]; LPS 10 μg/ml, 30 μM and 60 μM", "value": "decreased by oroxylin A in a concentration-dependent manner"}]}]}
